Measurements reported in patent US5620958A, “Bradykinin antagonists” (Coretech, Inc., priority 1994, dated 1997).
Peptide text beside a SMILES is read from it.

Key:
NK2 receptor = biological target: T1, NK2 receptor (Oryctolagus cuniculus, UniProt P79218); assay: rabbit pulmonary artery, reduction of neurokinin A contraction; type: cell-based; conditions: Table R; negative log of molar concentration reducing sustained neurokinin A contraction by 50%; read-out: NK2 Rabbit Pulm Art log (converted)
T1 construct: reduce a sustained contractile response produced by neurokinin A by 50%; from tissue; host or cells: contractile tissue preparation (rabbit pulmonary artery per the earlier reading)
T1 sequence (P79218 1-384): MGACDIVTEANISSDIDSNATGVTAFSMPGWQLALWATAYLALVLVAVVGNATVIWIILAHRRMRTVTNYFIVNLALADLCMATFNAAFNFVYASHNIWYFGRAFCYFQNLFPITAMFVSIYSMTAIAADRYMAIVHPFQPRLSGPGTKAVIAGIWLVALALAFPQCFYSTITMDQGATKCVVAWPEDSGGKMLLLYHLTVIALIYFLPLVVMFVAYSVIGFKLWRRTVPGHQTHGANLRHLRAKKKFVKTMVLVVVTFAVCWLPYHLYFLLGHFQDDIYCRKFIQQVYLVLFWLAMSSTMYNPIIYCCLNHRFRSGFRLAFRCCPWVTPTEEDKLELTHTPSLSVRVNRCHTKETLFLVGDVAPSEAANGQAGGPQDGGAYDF
Experimental: The heterodimers thus obtained were tested for activity as heretofore described, the results being shown in Table R. In this Table -log [M] represents the negative log of the molar concentration of the antagonist necessary to reduce a sustained contractile response produced by neurokinin A by 50%.

BK2 receptor [1] = biological target: T2, BK2 receptor (Rattus norvegicus, UniProt P25023); assay: cell-based
T2 sequence (P25023 1-396): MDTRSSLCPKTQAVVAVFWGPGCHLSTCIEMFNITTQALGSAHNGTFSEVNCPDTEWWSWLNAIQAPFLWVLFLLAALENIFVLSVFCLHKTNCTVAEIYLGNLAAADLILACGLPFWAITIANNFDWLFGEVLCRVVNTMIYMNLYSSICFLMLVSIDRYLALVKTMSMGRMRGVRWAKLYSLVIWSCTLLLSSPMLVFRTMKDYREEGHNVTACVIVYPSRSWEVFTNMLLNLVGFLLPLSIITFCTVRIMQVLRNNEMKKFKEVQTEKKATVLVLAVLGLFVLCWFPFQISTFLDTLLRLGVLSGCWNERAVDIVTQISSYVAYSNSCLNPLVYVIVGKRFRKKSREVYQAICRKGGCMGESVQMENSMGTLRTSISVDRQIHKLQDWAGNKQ

BK2 receptor [2] = biological target: T3, BK2 receptor (Oryctolagus cuniculus, UniProt Q28642); assay: rabbit jugular vein (RJV) in vitro, antagonism of BK; type: cell-based; conditions: Table A; recovery after washing
T3 construct: when administered to an intact animal; from tissue; host or cells: whole rabbit (systemic arterial blood pressure), LPS-pretreated
T3 sequence (Q28642 1-367): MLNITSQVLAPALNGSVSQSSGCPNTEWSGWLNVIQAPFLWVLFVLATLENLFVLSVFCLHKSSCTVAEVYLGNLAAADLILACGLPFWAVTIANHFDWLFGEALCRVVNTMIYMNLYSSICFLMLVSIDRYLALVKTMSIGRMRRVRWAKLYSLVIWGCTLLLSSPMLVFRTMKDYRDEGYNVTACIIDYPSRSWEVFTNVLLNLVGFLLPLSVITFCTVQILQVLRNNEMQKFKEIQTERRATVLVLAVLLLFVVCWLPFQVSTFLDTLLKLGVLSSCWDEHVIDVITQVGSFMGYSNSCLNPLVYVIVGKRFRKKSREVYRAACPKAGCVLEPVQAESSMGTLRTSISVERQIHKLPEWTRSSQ

[3] = tested on: BK-induced vascular permeability; assay: rabbit skin vascular permeability to intradermal BK (Evans Blue); type: in vivo
BK-induced hypotension = BK-induced hypotension in the anesthetized rat; type: in vivo; conditions: intravenous infusion 9 nmol kg^-1 min^-1; BK 4×10^-9 moles; FIG. 3
Experimental: After stopping the infusion of CP-0127, it can be seen that the responses to BK returned slowly being fully recovered after approximately 20 minutes.
Using anaesthetized rats, dose-response curves to BK were constructed and the ED50 identified (see FIG. 5a). The ED50 was then injected before and at 15 minute intervals after a single S.C. injection of CP-0127.

BK1 receptor = biological target: T4, BK1 receptor (Oryctolagus cuniculus, UniProt P48748); assay: rabbit aorta in vitro, reversal of des-Arg^9 -BK contraction; type: cell-based; conditions: Table G; negative log of molar concentration causing 50% reversal of 10^-7 M des-Arg^9 -BK contraction
T4 construct: when administered to an intact animal; from tissue; host or cells: whole rabbit (systemic arterial blood pressure), LPS-pretreated
T4 sequence (P48748 1-352): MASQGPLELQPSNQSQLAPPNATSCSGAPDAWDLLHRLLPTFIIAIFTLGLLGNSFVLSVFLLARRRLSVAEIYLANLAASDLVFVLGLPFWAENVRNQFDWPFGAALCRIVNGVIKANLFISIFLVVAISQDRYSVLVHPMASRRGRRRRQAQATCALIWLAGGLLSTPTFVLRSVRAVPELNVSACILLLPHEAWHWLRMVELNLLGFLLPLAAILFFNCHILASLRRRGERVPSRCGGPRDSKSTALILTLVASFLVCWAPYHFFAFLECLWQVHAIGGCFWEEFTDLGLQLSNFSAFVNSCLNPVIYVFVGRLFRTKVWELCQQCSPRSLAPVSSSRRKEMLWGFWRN

BK2 receptor [4] = biological target: T3, BK2 receptor; assay: blood pressure response to BK2 agonist in LPS-pretreated rabbits; type: in vivo, rabbit; design: key to OBSERVED ANTAGONIST ACTIVITY BK2: +: indicates complete blockade of the blood pressure response to the appropriate agonist; +/-: indicates partial blockade; -: indicates no observable effect at the dose indicated; conditions: rabbits given LPS (10 μg) 20 hours before

SMILES	IC50 (NK2 receptor) [nM]	Kb (BK2 receptor [1]) [nM]	also measured
CC(C)C[C@H](NC(=O)[C@@H](Cc1ccccc1)NC(=O)[C@H](CSC1CC(=O)N(CCCCCCN2C(=O)CC(SC[C@H](N)C(=O)N[C@@H](Cc3ccc(O)cc3)C(=O)N[C@H](Cc3c[nH]c4ccccc34)C(=O)N[C@H](C(=O)N[C@H](Cc3c[nH]c4ccccc34)C(=O)N[C@H](Cc3c[nH]c4ccccc34)C(=O)N[C@@H](CCCNC(=N)N)C(N)=O)C(C)C)C2=O)C1=O)NC(=O)[C@H](Cc1ccccc1)NC(=O)CNC(=O)[C@@H]1C[C@@H](O)CN1C(=O)[C@@H]1CCCN1C(=O)[C@H](CCCNC(=N)N)NC(=O)[C@H](N)CCCNC(=N)N)C(=O)N[C@@H](CCCNC(=N)N)C(=O)O (stereo partly shown) [CP-0411] (HELM PEPTIDE1{[dR].R.P.[Hyp].G.F.C.[dF].L.R}|PEPTIDE2{C.Y.[dW].V.[dW].[dW].R.[am]}|CHEM1{[O=C1CC([*:1])C(=O)N1CCCCCCN1C(=O)CC([*:2])C1=O]}$PEPTIDE1,CHEM1,7:R3-1:R1|PEPTIDE2,CHEM1,1:R3-1:R2$$$V2.0; N-terminus assumed)	3160	31.6	
CC(C)C[C@H](NC(=O)[C@@H](Cc1ccccc1)NC(=O)[C@H](CS)NC(=O)[C@H](Cc1ccccc1)NC(=O)CNC(=O)[C@@H]1C[C@@H](O)CN1C(=O)[C@@H]1CCCN1C(=O)[C@H](CCCNC(=N)N)NC(=O)[C@H](N)CCCNC(=N)N)C(=O)N[C@@H](CCCNC(=N)N)C(=O)O [CP-0126] (HELM PEPTIDE1{[dR].R.P.[Hyp].G.F.C.[dF].L.R}$$$$V2.0)			RJV % REC (BK2 receptor [2]): 60%; inhibition of BK-induced skin vascular permeability ([3]; co-injected intradermally with BK, FIG. 2A): more potent than CP-0127; inhibition of BK-induced skin vascular permeability ([3]; pre-injected 15 or 30 minutes before BK in the same site, FIGS. 2B, 2C): significantly less effective; inhibition of hypotensive response to BK (BK-induced hypotension): almost totally ineffective; BK1 RABBIT AORTA IC50 (BK1 receptor): Inactive; OBSERVED ANTAGONIST ACTIVITY BK2 (BK2 receptor [4]; 1 μg kg^-1 min^-1): +; OBSERVED ANTAGONIST ACTIVITY BK2 (BK2 receptor [4]; 3 μg kg^-1 min^-1): +; OBSERVED ANTAGONIST ACTIVITY BK2 (BK2 receptor [4]; 10 μg kg^-1 min^-1): +
CC(C)C[C@H](NC(=O)[C@@H](Cc1ccccc1)NC(=O)[C@H](CSC1CC(=O)N(CCCCCCN2C(=O)CC(SC[C@H](NC(=O)[C@@H](Cc3c[nH]c4ccccc34)NC(=O)[C@H](Cc3ccc(O)cc3)NC(=O)[C@@H](N)CC(=O)O)C(=O)N[C@H](Cc3c[nH]c4ccccc34)C(=O)N[C@H](Cc3c[nH]c4ccccc34)C(=O)N[C@@H](CCCNC(=N)N)C(N)=O)C2=O)C1=O)NC(=O)[C@H](Cc1ccccc1)NC(=O)CNC(=O)[C@@H]1C[C@@H](O)CN1C(=O)[C@@H]1CCCN1C(=O)[C@H](CCCNC(=N)N)NC(=O)[C@H](N)CCCNC(=N)N)C(=O)N[C@@H](CCCNC(=N)N)C(=O)O (stereo partly shown) [CP-0414] (HELM PEPTIDE1{[dR].R.P.[Hyp].G.F.C.[dF].L.R}|PEPTIDE2{D.Y.[dW].C.[dW].[dW].R.[am]}|CHEM1{[O=C1CC([*:1])C(=O)N1CCCCCCN1C(=O)CC([*:2])C1=O]}$PEPTIDE1,CHEM1,7:R3-1:R1|PEPTIDE2,CHEM1,4:R3-1:R2$$$V2.0; N-terminus assumed)	6310	15.8	
CC(C)C[C@H](NC(=O)[C@@H](Cc1ccccc1)NC(=O)[C@H](CSC1CC(=O)N(CCCCCCN2C(=O)CC(SC[C@H](NC(=O)[C@@H](Cc3c[nH]c4ccccc34)NC(=O)[C@@H](Cc3c[nH]c4ccccc34)NC(=O)[C@@H](NC(=O)[C@@H](Cc3c[nH]c4ccccc34)NC(=O)[C@H](Cc3ccc(O)cc3)NC(=O)[C@@H](N)CC(=O)O)C(C)C)C(N)=O)C2=O)C1=O)NC(=O)[C@H](Cc1ccccc1)NC(=O)CNC(=O)[C@@H]1C[C@@H](O)CN1C(=O)[C@@H]1CCCN1C(=O)[C@H](CCCNC(=N)N)NC(=O)[C@H](N)CCCNC(=N)N)C(=O)N[C@@H](CCCNC(=N)N)C(=O)O (stereo partly shown) [CP-0417] (HELM PEPTIDE1{[dR].R.P.[Hyp].G.F.C.[dF].L.R}|PEPTIDE2{D.Y.[dW].V.[dW].[dW].C.[am]}|CHEM1{[O=C1CC([*:1])C(=O)N1CCCCCCN1C(=O)CC([*:2])C1=O]}$PEPTIDE1,CHEM1,7:R3-1:R1|PEPTIDE2,CHEM1,7:R3-1:R2$$$V2.0)	2510	10	
CC(C)C[C@H](NC(=O)[C@@H](Cc1ccccc1)NC(=O)[C@H](CSC1CC(=O)N(CCCCCCN2C(=O)CC(SC[C@H](NC(=O)[C@@H](NC(=O)[C@@H](Cc3c[nH]c4ccccc34)NC(=O)[C@H](Cc3ccc(O)cc3)NC(=O)[C@@H](N)CC(=O)O)C(C)C)C(=O)N[C@H](Cc3c[nH]c4ccccc34)C(=O)N[C@@H](CCCNC(=N)N)C(N)=O)C2=O)C1=O)NC(=O)[C@H](Cc1ccccc1)NC(=O)CNC(=O)[C@@H]1C[C@@H](O)CN1C(=O)[C@@H]1CCCN1C(=O)[C@H](CCCNC(=N)N)NC(=O)[C@H](N)CCCNC(=N)N)C(=O)N[C@@H](CCCNC(=N)N)C(=O)O (stereo partly shown) [CP-0415] (HELM PEPTIDE1{[dR].R.P.[Hyp].G.F.C.[dF].L.R}|PEPTIDE2{D.Y.[dW].V.C.[dW].R.[am]}|CHEM1{[O=C1CC([*:1])C(=O)N1CCCCCCN1C(=O)CC([*:2])C1=O]}$PEPTIDE1,CHEM1,7:R3-1:R1|PEPTIDE2,CHEM1,5:R3-1:R2$$$V2.0; N-terminus assumed)	6310	15.8	
